Consider twelve compounds from patent US11311544B2, “Treatment of congenital adrenal hyperplasia” (Neurocrine Biosciences, Inc., priority 2014, dated 2022).

SMILES strings stand for the structures. Like-named read-outs stand apart in the source and are kept apart here.

Test [1] addresses T1, CRF1 receptor (Homo sapiens, UniProt P34998).
T1 sequence (P34998 24-415): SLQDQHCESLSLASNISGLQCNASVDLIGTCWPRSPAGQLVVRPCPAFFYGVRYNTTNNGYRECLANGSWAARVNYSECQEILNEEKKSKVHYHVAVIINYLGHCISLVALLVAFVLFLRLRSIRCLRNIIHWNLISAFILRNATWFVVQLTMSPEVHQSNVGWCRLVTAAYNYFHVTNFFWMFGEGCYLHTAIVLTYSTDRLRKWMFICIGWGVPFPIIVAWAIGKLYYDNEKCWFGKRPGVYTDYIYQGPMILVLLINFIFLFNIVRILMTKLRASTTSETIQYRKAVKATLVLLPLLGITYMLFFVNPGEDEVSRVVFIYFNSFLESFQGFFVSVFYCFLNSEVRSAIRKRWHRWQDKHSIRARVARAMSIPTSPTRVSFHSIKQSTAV
The settings on record: as reported in Fleck et al., cited from earlier work; for Ki: Ki=k−1/k1, read-out: Kinetic Ki; for Dissociation t1/2: t1/2=0.693/k−1.

The test system of test [2] is plasma ACTH in adrenalectomized (ADX) rats. The settings on record: Fleck et al., cited from earlier work; for effect on plasma ACTH, acute: highest dose 10 mg/kg, 1 hr post-injection, FIG. 3A-C.
For test [3] the test system is unchanged. Description: Lowering of plasma ACTH in adrenalectomized rats. The format is in vivo, rat. The settings on record: 30 mg/kg single oral dose, FIG. 2. The source says: Adrenalectomy eliminates circulating corticosterone (the primary glucocorticoid) in rats and removes the negative feedback control of the HPA axis at both the hypothalamic and pituitary (corticotroph cells) levels and thus chronically elevates plasma ACTH (see, e.g., Mims et al., J. Natl. Med. Assoc. 69:145-47 (1977)). […] These findings were recapitulated with the small molecule NBI-77860 (Compound I). In adrenalectomized rats, Compound I has potent capability for lowering ACTH.
These findings were recapitulated with the small molecule NBI-77860. […] The duration of efficacy correlated with peak plasma concentrations, with a time course exceeding drug plasma exposure.
Fleck et al. also report the effects of CRF1 receptor antagonists differentiated by their dissociation half-life on plasma ACTH levels in adrenalectomized rats; namely, NBI 30775, NBI 34041 and NBI 35965. […] After a longer duration, a clear difference emerged between NBI 35965 and the other two ligands. The ACTH level returned to the vehicle level by 2 hr for NBI 35965 (FIG. 3C), whereas the response was sustained for 4-6 hr for NBI 30775 and NBI 34041 (FIGS. 3A and 3B).

Test [4] concerns 17-OHP and ACTH levels (HPA axis hormones). In words: Phase 1 single-dose clinical study in adult females with classical congenital adrenal hyperplasia. The format is in vivo, human. The settings on record: adult female classical CAH patients, single bedtime doses. How it is done:
The study was a single-blind, placebo-controlled, single center, fixed-sequence, single-dose clinical trial in adult female classical CAH patients.
The subjects' usual morning dose of concurrent steroidal treatment was delayed until after the 16-hour postdose blood samples were collected (i.e., until approximately 1400 h).
The PD endpoints for this study included the HPA axis biomarkers of interest in this patient population; namely, 17-hydroxyprogesterone (17-OHP; as the primary PD endpoint), adrenocorticotropic hormone (ACTH), androstenedione, testosterone, and serum cortisol levels. The initial analysis of PD variables was an examination of the grouped subject data for each biomarker, expressed as a mean percent change from predose levels for the two active dosing conditions relative to the placebo condition.
This responder analysis yielded a sizeable responder rate of 50% in the study (none of these subjects were responders during the initial placebo treatment period).

Test [5] concerns HPA axis response (ACTH) produced by metyrapone. Description: Pharmacodynamic effect of single oral doses on HPA axis response produced by metyrapone in humans. The class given is in vivo. The settings on record: human, metyrapone 0.04 g/kg.
[6] abbreviates: Table 2 rate constant used for t1/2.

In general, Ki refers to a measure of affinity in units of concentration, obtained from inhibition or displacement. Consider `CCC(CC)Nc1cc(C)nc2c(-c3ccc(OC)cc3C)c(C)nn12` [DMP904], for which the Ki in test [1] was 0.38 nM. In addition, the entries for the “Rate constant (association k1 or dissociation k−1)” value (“Rate constant” below) in test [1] (setting [6]) and in test [1] (association rate constant) were 0.0072 ± 0.002 min⁻¹ and 18 ± 1 10^6M^−1min^−1, respectively.
For `CCC(CC)Nc1c2c(nc3c(-c4ccc(OC)cc4Cl)c(C)nn13)CCC2` [ONO-2333Ms, 10-(2-chloro-4-methoxyphenyl)-11-methyl-N-(pentan-3-yl)-1,8,12-triazatricyclo[7.3.0.0^3,7] dodeca-2,7,9,11-tetraen-2-amine], in test [1], the Ki is 15 nM. In addition, the “Rate constant” value in test [1] (setting [6]) is 0.063 ± 0.029 min⁻¹; in test [1] (association rate constant) it was 4.4 ± 2.2 10^6M^−1min^−1. For the same compound, the “Dissociation t1/2” value in test [1] was 17 min.
As for `CCCN(CCC)c1cc(C)nc2c(-c3cnc(N(C)C)cc3C)c(C)nn12` [NBI-30775, 5-[7-(dipropylamino)-2,5-dimethylpyrazolo[1,5-a]pyrimidin-3-yl]-N,N,4-trimethylpyridin-2-amine], the “Rate constant” value in test [1] (setting [6]) was 0.0054 ± 0.0006 min⁻¹; in test [1] (association rate constant) it was 14 ± 2.0 10^6M^−1min^−1. The “effect on plasma ACTH, acute” value in test [2] is on record as “reduced ACTH acutely”.
Regarding `CC[C@@H](C)Nc1nc(C)nc2c(-c3ccc(OC)nc3C)c(C)nn12` [pexacerfont, N-[(2R)-butan-2-yl]-8-(6-methoxy-2-methylpyridin-3-yl)-2,7-dimethylpyrazolo[1,5-a][1,3,5]triazin-4-amine], the results for the “Rate constant” value in test [1] (setting [6]) and in test [1] (association rate constant) were 0.049 ± 0.001 min⁻¹ and 2.6 ± 0.1 10^6M^−1min^−1, respectively. In test [1], the “Dissociation t1/2” value is reported as 14 min.
As to `CC[C@H](Nc1cc(C)nc2c(-c3ccc(OC)cc3C)c(C)nn12)c1nc(C)no1` [NBI-77860, 2,5-dimethyl-3-[2-methyl-4-(methyloxy)phenyl]-N-[(1S)-1-(3-methyl-1,2,4-oxadiazol-5-yl)propyl]pyrazolo[1,5-a]pyrimidin-7-amine], the “duration of significant lowering of plasma ACTH levels” value in test [3] is listed as “up to 5 hours”. Moreover, in test [4], the “effects on 17-OHP and ACTH, 300 mg dose compared with 600 mg dose” value is recorded as “nearly identical effects”. In addition, the “ACTH AUC (30 min to 4 h) compared to placebo” value in test [5] (single oral dose 10 mg) was “increase”; in test [5] (single oral dose 50 mg), “non-significant reduction”; in test [5] (single oral dose 400 mg), “significant reduction”. The “ACTH AUC (2 h to 4 h) compared with placebo” value in test [5] (single oral dose 10 mg) is “reduction was not seen”; in test [5] (single oral dose 50 mg) it was “significant reduction”; in test [5] (single oral dose 400 mg) it was “significant reduction”.
As to `CCCCN(CC)c1nc(C)nc2c1c(C)c(C)n2-c1c(C)cc(C)cc1C` [antalarmin, N-butyl-N-ethyl-2,5,6-trimethyl-7-(2,4,6-trimethylphenyl)pyrrolo[3,2-e]pyrimidin-4-amine], in test [1], the Ki was 3.9 nM. Moreover, the “Rate constant” value in test [1] (setting [6]) was 0.013 ± 0.002 min⁻¹; in test [1] (association rate constant), 3.4 ± 0.6 10^6M^−1min^−1. The “Dissociation t1/2” value in test [1] was 53 min.
Consider `CCC(CC)Oc1cc(C)nc(Oc2c(C)cc(C)cc2C)c1C` [CP-316,311, 3,6-dimethyl-4-(pentan-3-yloxy)-2-(2,4,6-trimethylphenoxy) pyridine], for which, in test [1], the Ki is 12 nM and the “Dissociation t1/2” value is 4.1 min. Besides, the “Rate constant” value in test [1] (setting [6]) is 0.17 ± 0.04 min⁻¹. Besides, the “Rate constant” value in test [1] (association rate constant) is 13 ± 2 10^6M^−1min^−1.
Turning to `CCCC(CCC)N1CCn2nc(-c3ccc(Cl)cc3Cl)c3nc(C)cc1c32` [NBI-34041, 3-(2,4-dichlorophenyl)-9-(heptan-4-yl)-6-methyl-1,2,5,9-tetraazatricyclo[6.3.1.0^4,12] dodeca-2,4(12),5,7-tetraene], in test [1], the Ki is 1.7 nM and the “Dissociation t1/2” value is 53 min. In test [1] (setting [6]), the “Rate constant” value was 0.013 ± 0.002 min⁻¹. Further, the “Rate constant” value in test [1] (association rate constant) is on record as 8.3 ± 2.0 10^6M^−1min^−1. In addition, in test [2], the “effect on plasma ACTH, acute” value is “reduced ACTH acutely”.
Consider `Cc1nnc2n1-c1ccc(Cl)cc1C(c1ccccc1)=NC2` [alprazolam], for which the “ACTH AUC (30 min to 4 h) compared to placebo” value in test [5] (single dose alprazolam 0.75 mg) is on record as “significant reduction”.
Consider `COCC(COC)Nc1nc(C)nc2c(-c3ccc(Cl)cc3Cl)c(C)nn12` [DMP696], for which, in test [1], the Ki is 9.5 nM and the “Dissociation t1/2” value was 7.3 min. Besides, in test [1] (setting [6]), the “Rate constant” value is 0.095 ± 0.02 min⁻¹. Moreover, the “Rate constant” value in test [1] (association rate constant) is 7.7 ± 2 10^6M^−1min^−1.
For `CC[C@H]1Cn2nc(-c3ccc(Cl)cc3Cl)c3nc(C)cc(c32)N1CC1CC1.CS(=O)(=O)O` [NBI-35965], in test [1], the inhibition constant Ki is 2.3 nM and the “Dissociation t1/2” value is given as 16 min. The “Rate constant” value in test [1] (setting [6]) is 0.048 ± 0.005 min⁻¹. Further, the “Rate constant” value in test [1] (association rate constant) is given as 20 ± 2 10^6M^−1min^−1. Moreover, in test [2] (10 mg/kg), the “time by which ACTH level returned to the vehicle level” value was not above 2 h. Besides, in test [2], the “effect on plasma ACTH, acute” value was “reduced ACTH acutely”.
Turning to `CCCN(CC1CC1)c1nc(C)nc(Nc2c(Cl)cc(Cl)cc2Cl)c1Cl` [NBI-27914], in test [1], the Ki was 25 nM and the “Dissociation t1/2” value is 2.6 min. Moreover, the “Rate constant” value in test [1] (setting [6]) was 0.27 ± 0.07 min⁻¹. Moreover, in test [1] (association rate constant), the “Rate constant” value is listed as 9.4 ± 3 10^6M^−1min^−1.
